According to PubChem BioAssay (NCI):
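GI50: concentration for 50% inhibition of growth. TGI marks complete inhibition of growth.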

Experiments:
Assay in all cases: NCI anticancer screen, dose series, 384-well format
[1] = test system: 786-0 renal
[2] = test system: A498 renal
[3] = test system: A549 NSCLC
[4] = test system: ACHN renal
[5] = test system: BT-549 breast
[6] = test system: CAKI-1 renal
[7] = test system: COLO 205 colon
[8] = test system: DU-145 prostate
[9] = test system: EKVX NSCLC
[10] = test system: HCC-2998 colon
[11] = test system: HCT-116 colon
[12] = test system: HCT-15 colon
[13] = test system: HL-60(TB) leukemia
[14] = test system: HOP-62 NSCLC
[15] = test system: HOP-92 NSCLC
[16] = test system: HS 578T breast
[17] = test system: HT29 colon
[18] = test system: IGROV1 ovarian
[19] = test system: KM12 colon
[20] = test system: LOX IMVI melanoma
[21] = test system: M14 melanoma
[22] = test system: MALME-3M melanoma
[23] = test system: MCF7 breast
[24] = test system: MDA-MB-231 breast
[25] = test system: MDA-MB-435 melanoma
[26] = test system: MDA-MB-468 breast
[27] = test system: MOLT-4 leukemia
[28] = test system: NCI-H226 lung
[29] = test system: NCI-H23 lung
[30] = test system: NCI-H322M lung
[31] = test system: NCI-H460 NSCLC
[32] = test system: NCI-H522 lung
[33] = test system: NCI/ADR-RES ovarian
[34] = test system: OVCAR-3 ovarian
[35] = test system: OVCAR-4 ovarian
[36] = test system: OVCAR-5 ovarian
[37] = test system: OVCAR-8 ovarian
[38] = test system: PC-3 prostate
[39] = test system: RPMI-8226 leukemia
[40] = test system: RXF 393 renal
[41] = test system: SF-268 CNS
[42] = test system: SF-295 CNS
[43] = test system: SF-539 CNS
[44] = test system: SK-MEL-28 melanoma
[45] = test system: SK-MEL-5 melanoma
[46] = test system: SK-OV-3 ovarian
[47] = test system: SN12C renal
[48] = test system: SNB-19 CNS
[49] = test system: SNB-75 CNS
[50] = test system: SR leukemia
[51] = test system: SW-620 colon
[52] = test system: T-47D breast
[53] = test system: TK-10 renal
[54] = test system: U251 glioblastoma
[55] = test system: UACC-257 melanoma
[56] = test system: UACC-62 melanoma
[57] = test system: UO-31 renal

CN(C)C/C=C/C(=O)Nc1cc2c(Nc3ccc(F)c(Cl)c3)ncnc2cc1O[C@H]1CCOC1
GI50 [1]: 763 nM | TGI [1]: 2190 nM | GI50 [2]: 126 nM | TGI [2]: 1540 nM | GI50 [3]: 436 nM | TGI [3]: 2330 nM | GI50 [4]: < 10 nM | TGI [4]: 1420 nM | GI50 [5]: 617 nM | TGI [5]: 1920 nM | GI50 [6]: 138 nM | TGI [6]: 1570 nM | GI50 [7]: 2080 nM | TGI [7]: 10300 nM | GI50 [8]: 383 nM | TGI [8]: 3610 nM | GI50 [9]: < 10 nM | TGI [9]: 2160 nM | GI50 [10]: 1340 nM | TGI [10]: 2810 nM | GI50 [11]: 551 nM | TGI [11]: 1950 nM | GI50 [12]: 627 nM | TGI [12]: 2000 nM | GI50 [13]: 340 nM | TGI [13]: 1300 nM | GI50 [14]: 1910 nM | TGI [14]: 5050 nM | GI50 [15]: 499 nM | TGI [15]: 2510 nM | GI50 [16]: 1450 nM | TGI [16]: 3140 nM | GI50 [17]: 2000 nM | TGI [17]: 11400 nM | GI50 [18]: < 10 nM | TGI [18]: 1090 nM | GI50 [19]: 1230 nM | TGI [19]: 3070 nM | GI50 [20]: 1050 nM | TGI [20]: 2240 nM | GI50 [21]: 1310 nM | TGI [21]: 2590 nM | GI50 [22]: 1420 nM | TGI [22]: 2730 nM | GI50 [23]: 1220 nM | TGI [23]: 2780 nM | GI50 [24]: 386 nM | TGI [24]: 1870 nM | GI50 [25]: 2010 nM | TGI [25]: 9460 nM | GI50 [26]: < 10 nM | GI50 [27]: 232 nM | TGI [27]: 1260 nM | GI50 [28]: 907 nM | TGI [28]: 2210 nM | GI50 [29]: 1320 nM | TGI [29]: 2780 nM | GI50 [30]: < 10 nM | TGI [30]: 13.1 nM | GI50 [31]: 1790 nM | TGI [31]: 3800 nM | GI50 [32]: < 10 nM | TGI [32]: 34.4 nM | GI50 [33]: 1400 nM | TGI [33]: 5410 nM | GI50 [34]: 79.8 nM | TGI [34]: 928 nM | GI50 [35]: 2050 nM | TGI [35]: 6590 nM | GI50 [36]: 1050 nM | TGI [36]: 7640 nM | GI50 [37]: 1200 nM | TGI [37]: 2770 nM | GI50 [38]: 1570 nM | TGI [38]: 3580 nM | GI50 [39]: 1280 nM | TGI [39]: 2550 nM | GI50 [40]: 226 nM | TGI [40]: 838 nM | GI50 [41]: 1390 nM | TGI [41]: 3910 nM | GI50 [42]: 3930 nM | TGI [42]: 14600 nM | GI50 [43]: 1410 nM | TGI [43]: 2780 nM | GI50 [44]: 1990 nM | TGI [44]: 5180 nM | GI50 [45]: 1020 nM | TGI [45]: 2190 nM | GI50 [46]: 112 nM | TGI [46]: 8400 nM | GI50 [47]: 316 nM | TGI [47]: 6530 nM | GI50 [48]: 1910 nM | TGI [48]: 10600 nM | GI50 [49]: 429 nM | TGI [49]: 2960 nM | GI50 [50]: 1210 nM | TGI [50]: 2450 nM | GI50 [51]: 1800 nM | TGI [51]: 5100 nM | GI50 [52]: 17.1 nM | TGI [52]: 2540 nM | GI50 [53]: < 10 nM | TGI [53]: 11200 nM | GI50 [54]: 1310 nM | TGI [54]: 4050 nM | GI50 [55]: 1330 nM | TGI [55]: 2620 nM | GI50 [56]: 1370 nM | TGI [56]: 2780 nM | GI50 [57]: 184 nM | TGI [57]: 10700 nM
